Measured values as given in PubChem BioAssay (NCI).
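Five concentrations, 48 hours, 96-well plates. GI50: concentration for 50% inhibition of growth. At the TGI there is no net growth.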

system: KM12 colon; assay: growth of human tumour cells (NCI), 48 h

`CCn1c2ccccc2c2cc(NC(=O)Nc3ccc([N+](=O)[O-])cc3C)ccc21` and `COc1ccc2c(c1)C(=O)c1c-2c(N2CCN(C(=O)CNCCNCCO)CC2)nc2ccccc12` are within 1.5-fold of each other in GI50: 2.69 µM for the first, 2.48 µM for the second.

Going from `COc1ccc(Nc2nnc(-c3cc(O)ccc3O)s2)cc1` to `Cn1cc(-c2csc(-c3c[nH]c4ccc(F)cc34)n2)c2cnccc21`, the GI50 falls from 32.6 µM to 1.83 µM (18-fold).

First: CCC[CH2][Sn]([Cl])([CH2]CCC)[CH2]CCC
Second: COc1cc(-n2cc(-c3ccc(F)cc3)[nH]c2=O)cc(OC)c1OC
The GI50 of the first is lower: 0.123 µM for the first, greater than 100 µM for the second.

`CCn1c2ccccc2c2cc(NC(=O)Nc3ccc([N+](=O)[O-])cc3C)ccc21` and `O=C(/C=C/c1cccc2ccccc12)c1ccccc1Cl` are within 1.5-fold of each other in TGI: 16.8 µM for the first, 21.3 µM for the second.

`Cc1ccc(NC(=O)CCc2cc(C(C)(C)C)nc(=S)[nH]2)cc1C` and `CCOc1ccc(NC(=O)CC#N)cc1` cannot be ordered by TGI: greater than 100 µM for the first, greater than 100 µM for the second.

`Cc1[nH]c2ccccc2c1C(=O)/C=C/c1ccccc1O` and `COc1ccc(CC2NCCc3c2[nH]c2ccccc32)cc1` (centres undefined) cannot be ordered by TGI: greater than 100 µM for the first, greater than 100 µM for the second.

Going from `O=C(Nc1nc(=S)c2c(ncn2CCOC(=O)c2ccccc2)[nH]1)c1ccccc1` to `COc1ccc2c(c1)C(=O)c1c-2c(N2CCN(C(=O)CNCCNCCO)CC2)nc2ccccc12`, the TGI falls from greater than 100 µM to 5.79 µM.

`COc1ccc(Nc2nnc(-c3cc(O)ccc3O)s2)cc1` and `Cc1ccc(/C=C/C(=O)c2sc(-c3nc(C)c(C(=O)/C=C/c4ccc(C)cc4)s3)nc2C)cc1` cannot be ordered by TGI: greater than 50 µM for the first, greater than 100 µM for the second.

`O=C1/C(=C/c2ccc(Cl)cc2)CCC1CCN1CCOCC1` (centres undefined) and `O=c1ccn([C@H]2CSC[C@@H](CO)C2)c(=O)[nH]1` cannot be ordered by TGI: greater than 100 µM for the first, greater than 100 µM for the second.

First: Cn1cc(-c2csc(-c3c[nH]c4ccc(F)cc34)n2)c2cnccc21
Second: COc1cc(-n2cc(-c3ccc(F)cc3)[nH]c2=O)cc(OC)c1OC
The TGI of the first is lower: 3.49 µM for the first, greater than 100 µM for the second.

Compared with `CCC[CH2][Sn]([Cl])([CH2]CCC)[CH2]CCC`, `C1CN2CCN3CCN4CCN1[P+]243` is higher in TGI: 0.264 µM for the first, greater than 100 µM for the second.

system: K-562 leukemia; assay: growth of human tumour cells (NCI), 48 h

Compared with `CN(C)CC[PH+](c1ccccc1)c1ccccc1.CN(C)CC[PH+](c1ccccc1)c1ccccc1.[Cl-].[Pd+2]`, `O=C1/C(=C/c2cccc(Cl)c2Cl)N=C(c2ccccc2)N1C1CC1` is 2.1-fold lower in GI50: 27.8 µM for the first, 13.5 µM for the second.

Going from `COc1cc(NCc2ccc3nc(N)nc(N)c3c2C)cc(OC)c1OC` (tested in a mixture with another compound) to `COc1cc2c3c(n(C)c(=O)c2cc1OC)-c1cc2c(cc1/C3=C\CN)OCO2`, the GI50 rises from 0.000159 µM to 0.106 µM (670-fold).

First: Cc1nn(-c2ccc(Cl)cc2)c2nc3c(nc12)C(=O)c1ccccc1-3
Second: COc1ccc2c(c1)C(=O)c1c-2c(N2CCN(C(=O)CNCCNCCO)CC2)nc2ccccc12
The GI50 of the first is higher: greater than 100 µM for the first, 2.85 µM for the second.

First: Nc1nc(/C=C\c2ccc([N+](=O)[O-])s2)nc(N2CCCC2)n1
Second: COc1ccc(Nc2nnc(-c3cc(O)ccc3O)s2)cc1
The GI50 of the first is 9.6-fold lower: 1.83 µM for the first, 17.6 µM for the second.

`CN(C)CC[PH+](c1ccccc1)c1ccccc1.CN(C)CC[PH+](c1ccccc1)c1ccccc1.[Cl-].[Pd+2]` and `O=C(/C=C/c1cccc2ccccc12)c1ccccc1Cl` cannot be ordered by TGI: greater than 100 µM for the first, greater than 100 µM for the second.

Going from `COc1cc(NCc2ccc3nc(N)nc(N)c3c2C)cc(OC)c1OC` (tested in a mixture with another compound) to `COc1ccc(NC(=O)/C(Cc2cc(=O)oc3cc(O)ccc23)=N\NC(C)(C)C)c(OC)c1`, the TGI rises from 46.3 µM to greater than 100 µM.

`Cc1nn(-c2ccc(Cl)cc2)c2nc3c(nc12)C(=O)c1ccccc1-3` and `Cc1cc(Cl)ccc1NC(=O)C(=O)Cc1nc2ccccc2o1` cannot be ordered by TGI: greater than 100 µM for the first, greater than 100 µM for the second.

`Nc1nc(/C=C\c2ccc([N+](=O)[O-])s2)nc(N2CCCC2)n1` and `COc1ccc2c(c1)C(=O)c1c-2c(N2CCN(C(=O)CNCCNCCO)CC2)nc2ccccc12` are within 1.5-fold of each other in TGI: 8.32 µM for the first, 11.9 µM for the second.

`CCOc1ccc(NC(=O)C(=O)CC(=O)c2c(C)n([O-])c3ccccc3[n+]2=O)cc1` and `CCOc1ccc(NC(=O)CC#N)cc1` cannot be ordered by TGI: greater than 100 µM for the first, greater than 100 µM for the second.

`OCC1OC(c2nc(C3=NCCCN3)cs2)C(O)C1O` (centres undefined) and `CN(C)CC1CCCC/C1=N/OC(=O)c1ccc(Cl)cc1` (centres undefined) cannot be ordered by TGI: greater than 100 µM for the first, greater than 100 µM for the second.

`Oc1cccnc1[Se]` and `Cc1[nH]c2ccccc2c1C(=O)/C=C/c1ccccc1O` cannot be ordered by TGI: greater than 100 µM for the first, greater than 100 µM for the second.

`CCC(C)COC(=O)c1ccc(N=Cc2ccc(C=Nc3ccc(C(=O)OCC(C)CC)cc3)cc2)cc1` (centres undefined) and `O=C(Nc1nc(=S)c2c(ncn2CCOC(=O)c2ccccc2)[nH]1)c1ccccc1` cannot be ordered by TGI: greater than 100 µM for the first, greater than 100 µM for the second.

`N#CC(C(=O)C(=O)C(C#N)c1ccc(Br)cc1)c1ccc(Br)cc1` (centres undefined) and `COc1ccc(Nc2nnc(-c3cc(O)ccc3O)s2)cc1` cannot be ordered by TGI: greater than 100 µM for the first, greater than 50 µM for the second.

`COc1cccc(C2=NC(C(C)C)CO2)c1` (centres undefined) and `COc1ccc(CC2NCCc3c2[nH]c2ccccc32)cc1` (centres undefined) cannot be ordered by TGI: greater than 100 µM for the first, greater than 100 µM for the second.

`O=C1/C(=C/c2cccc(Cl)c2Cl)N=C(c2ccccc2)N1C1CC1` and `CCCc1nc(NC#N)nc(C(=O)Nc2ccccc2)c1CC` cannot be ordered by TGI: greater than 50 µM for the first, greater than 100 µM for the second.

`O=C(CCc1n[nH]c(=S)o1)Nc1ccccc1C(F)(F)F` and `Cc1ccc(NC(=O)CCc2cc(C(C)(C)C)nc(=S)[nH]2)cc1C` cannot be ordered by TGI: greater than 100 µM for the first, greater than 100 µM for the second.
